The subject of series [1] is Pre-compacted 16- to 32-cell stage bovine embryos. Nature of the series: Dose response study of AL-8810 on embryo development. The series is classed as cell-based. The following applies: 96 h. The procedure:
Incubation conditions are 5.5% CO2, 7% O2, and 87.5% N2 at 38.5° C. The four groups are as follows: (1) KSOM-PVA+AL-8810 at 1000 nM, n=93 (High AL-8810 group); (2) KSOM-PVA+AL-8810 at 500 nM, n=95 (Medium AL-8810 group); (3) KSOM-PVA+AL-8810 at 250 nM, n=93 (Low AL-8810 group); and (4) KSOM-PVA with an equivalent volume of DMSO (dimethylsulfoxide) as used for the first three groups, n=95 (Control group).

In series [2] the test system is bovine cumulus-oocyte-complexes. The series can be described thus: Maturation of heat-stressed cumulus-oocyte-complexes with a PGF2α antagonist. The format is cell-based. The following applies: COC matured at 41.0° C. for first 12 h, AL-8810 at 250, 400 or 1000 nM; FIG. 1. The procedure:
In a first study, bovine cumulus-oocyte-complexes were divided into three groups. Each of the three groups were matured for 24 hours under heat-stress conditions at 41.0° C. for 12 hours, followed by 38.5° C. for the remaining 12 hours. A first group, referred to as the development control group, was matured utilizing a standard maturation medium. A second group, referred to as the diluent control group, was matured under the same conditions utilizing the same standard maturation medium to which was added a diluent DMSO (dimethyl sulfoxide). A third group, referred to as the treatment group, was matured under the same conditions utilizing the same standard maturation medium to which was added the PGF2α antagonist AL-8810 at a concentration of 250, 400, or 1000 nM. To prepare the diluent control, DMSO was added to the OMM to yield the same concentration as would be contained in the PGF2α antagonist dose being tested (0.0025, 0.004 and 0.01% v/v final concentration for the 250, 400 and 1000 nM doses, respectively). The generalized linear mixed models (GLIMMIX) procedure of SAS version 9.1 (SAS Institute; Cary, N.C.; 2003) was used to perform analyses. Data are presented as least square means±the standard error of the mean. […]

For series [3], the system named is Pre-compacted 16- to 32-cell stage bovine embryos. The following applies: 1000 nM AL-8810 + 1 ng/ml PGF, 48 h culture, assessed day 8.
Procedure: Pre-compacted 16- to 32-cell stage bovine embryos (day 4 post fertilization) are washed in KSOM-PVA and divided into four groups, each of which is cultured for 48 hours in KSOM-PVA containing one of the following: (1) 1000 nM AL-8810, n=95 (AL-8810 group); (2) 1 ng/ml PGF, n=91 (PGF group); (3) 1000 nM AL-8810+1 ng/ml PGF, n=90 (AL-8810+PGF group); or (4) KSOM-PVA without AL-8810 or PGF, n=84 (Control group).
Following the 48 hour culture, embryos from each group are placed in HEPES-TALP and embryonic development is assessed by a technician who is uninformed of the treatments of the embryos in each group. Embryos from each treatment group are washed in KSOM-PVA and transferred to a 4-well plate with KSOM-PVA for further culture until day 8 post fertilization, when embryonic development is again assessed.
Series [4] has as its system developmentally challenged bovine oocytes. The series can be described thus: Maturation of developmentally challenged oocytes with a PGF2α antagonist, then fertilization. The series is classed as cell-based. The procedure:
In a second study, bovine oocytes were obtained from ovaries of slaughtered cows. Oocytes that were developmentally challenged (development of oocyte to blastocyst less than 20%) were included in the study. The oocytes were matured for 24 hours in a standard maturation medium that either contained the PGF2α antagonist AL-8810 (treatment group) or that lacked the PGF2α antagonist (control group) and were then fertilized. Oocytes were observed on day 3 for the presence of cleavage and on day 9 for the presence of blastocyst development. The percentage of oocytes in that underwent cleavage and that developed into blastocysts was determined.

In series [5] the test system is embryos placed in recipient animals. Nature of the series: Pre-treatment of embryos in recovery and/or freezing/transfer media before embryo transfer. The format is in vivo, cattle. The procedure:
Approximately 100 embryo recoveries are performed on day 7 after estrus in beef and dairy cows (lactating and dry). Cows are superovulated (Folltropin) and embryos recovered, evaluated, and frozen (1.5 M Ethylene Glycol; EG) as previously reported (Schrick et al., Biol. Reprod. 49:617-621 (1993)). Half of the embryo recoveries occur utilizing 1 L of each of the following alternative media preparations: 1) Embryo recovery (flush) media (CON, n=50 recoveries; Dulbecco's PBS+1% FCS; GibcoBRL, Cat.#21300-025; Grand Island, N.Y.) or 2) Embryo recovery (flush) media+AL-8810 (TRT, n=50 recoveries; 430 nM of AL-8810).
Following filtering, embryo dishes are searched, embryos removed (placed in Vigro), and evaluated for quality and development (IETS guidelines). […]
Over a two year period, recipient animals (dairy and beef cows and heifers; n=500) have estrus synchronized utilizing GnRH/CIDR/Estrumate protocol consisting of administration of 100 ug GnRH (Cysterolin; Merial) and CIDR (intravaginal progesterone releasing device; Pfizer) insertion on day 0, CIDR removal and injection of 2 mL Estrumate (Schering-Plough Animal Health) on day 7, and estrous detection (twice daily) from days 8 through 12. […] Embryos used for ET are thawed (10 sec air thaw; 30 sec in 25° C. water bath), straw labeling (embryo ID) information recorded, and recipient ID collected. […]

Where [6] appears, read: oocytes matured 24 h with AL-8810, of those that cleaved.

Take `O=C(O)CCC/C=C\CC1C(O)CC(F)C1/C=C/C(O)C1Cc2ccccc2C1` (stereo not drawn) [AL-8810, 11β-fluoro-15-epi-15-indanyl-tetranor PGF2α]: the “early embryonic development of pre-compacted embryos” value in series [1] (AL-8810 at 250, 500 and 1000 nM, vs control group) is on record as “does not decrease or increase early embryonic development”. Besides, the embryonic development in series [1] (High AL-8810 group (1000 nM), vs 49.9+/-3.9% control, p<0.05) is on record as 60.3%+/−3.9. The “blastocyst development after heat stress” value in series [2] is on record as “the effect of heat stress to reduce blastocyst development was no longer observed”. The “embryonic development in the presence of PGF” value in series [3] is recorded as “decreases the negative effects of PGF on embryonic development”. Also, in series [4] (oocytes matured 24 h with AL-8810), the “deleterious or toxic effect on oocytes or developing embryos (stage and development of blastocysts)” value is given as “does not exert a deleterious or toxic effect”. Besides, the “Cleaved (%)” value in series [4] (oocytes matured 24 h with AL-8810, observed day 3) was 60.4%. In series [4] (oocytes matured 24 h with AL-8810, observed day 9), the “Blastocyst/PZ (%)” value came out at 17.7%. Further, in series [4] (setting [6]), the “2-cell (%)” value was determined as 7.2%, the “4-cell (%)” value turned out to be 15.2% and the “8 to 16-cell (%)” value amounted to 76.7%. Moreover, the pregnancy rates entry in series [5] (AL-8810 (430 nM in flush media) in embryo recovery and/or freezing/transfer media) was “increases pregnancy rates”. The “abnormalities in calves resulting from the pregnancies” value in series [5] (embryos pre-treated with AL-8810 in media) is “No abnormalities are observed in the calves”.

The record behind these values is patent US8715155B2, “Embryo development and survival” (University of Tennessee Research Foundation, priority 2005, dated 2014).
